“Also recorded” adds a separate entry of the source. One block for each molecule: values may come before it.
What was measured:
[1] = system: orthotopic pancreatic tumors; assay: FL guided intraoperative surgical removal of orthotopic pancreatic tumors; type: in vivo, mice; conditions: 24 h post-injection, data not shown
Excerpt: Improved survival rates for pancreatic cancer are associated with the complete surgical resection of tumor resulting in a tumor-free margin (R0). New methods employing intraoperative fluorescence (FL) guided tumor detection could lead to increased R0 margins and improved survival. We have reported Toll-like receptor 2 (TLR2) as a bona fide cell-surface marker for pancreatic adenocarcinoma. We then developed a high-affinity TLR2 binding ligand conjugated to a near-infrared (NIR) fluorescent dye, IR800CW, as a targeted molecular imaging probe for the intraoperative detection of surgical margins. To evaluate the in vivo pharmacokinetics and biodistribution of compound 13, FL imaging was performed on multiple optical imaging systems (PerkinElmer IVIS 200 and FMT2500XL, and ART Optix MX3) using TLR2 expressing pancreatic tumor xenograft mouse models (subcutaneous and orthotopic). […] Prior to surgery, the orthotopic pancreatic tumor volumes were monitored weekly and measured in vivo by 3D ultrasound imaging. […]

TLR2 [2] = biological target: T1, TLR2 (Homo sapiens, UniProt O60603); assay: In cyto europium TRF competition binding assay; set-up: ATCC (SU.86.86 CRL-1837, Capan-I HTB-79); SU.86.86 and Capan-I express TLR2 endogenously
Target sequence in this assay (O60603 21-784): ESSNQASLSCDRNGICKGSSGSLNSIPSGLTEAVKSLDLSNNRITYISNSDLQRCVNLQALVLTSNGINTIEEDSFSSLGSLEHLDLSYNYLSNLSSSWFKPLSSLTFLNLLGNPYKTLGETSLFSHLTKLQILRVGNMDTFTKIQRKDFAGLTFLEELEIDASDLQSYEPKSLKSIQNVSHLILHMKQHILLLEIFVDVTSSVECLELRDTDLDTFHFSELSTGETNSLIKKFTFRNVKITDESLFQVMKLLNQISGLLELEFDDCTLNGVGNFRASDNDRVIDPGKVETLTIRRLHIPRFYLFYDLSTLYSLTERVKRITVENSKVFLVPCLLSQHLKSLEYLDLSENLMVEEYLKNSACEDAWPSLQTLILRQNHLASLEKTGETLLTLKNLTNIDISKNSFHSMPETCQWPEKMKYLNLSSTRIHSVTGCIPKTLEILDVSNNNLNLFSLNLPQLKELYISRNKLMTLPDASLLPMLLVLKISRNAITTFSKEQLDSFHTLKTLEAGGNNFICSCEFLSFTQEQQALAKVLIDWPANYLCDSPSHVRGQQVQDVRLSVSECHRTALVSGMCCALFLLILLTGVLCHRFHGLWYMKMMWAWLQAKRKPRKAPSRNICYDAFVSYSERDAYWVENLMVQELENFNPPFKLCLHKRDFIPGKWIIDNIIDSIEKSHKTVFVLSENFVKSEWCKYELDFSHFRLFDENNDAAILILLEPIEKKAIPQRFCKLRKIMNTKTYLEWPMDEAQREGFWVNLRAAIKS
Target sequence in this assay (Q9Y2C9 32-796 partner): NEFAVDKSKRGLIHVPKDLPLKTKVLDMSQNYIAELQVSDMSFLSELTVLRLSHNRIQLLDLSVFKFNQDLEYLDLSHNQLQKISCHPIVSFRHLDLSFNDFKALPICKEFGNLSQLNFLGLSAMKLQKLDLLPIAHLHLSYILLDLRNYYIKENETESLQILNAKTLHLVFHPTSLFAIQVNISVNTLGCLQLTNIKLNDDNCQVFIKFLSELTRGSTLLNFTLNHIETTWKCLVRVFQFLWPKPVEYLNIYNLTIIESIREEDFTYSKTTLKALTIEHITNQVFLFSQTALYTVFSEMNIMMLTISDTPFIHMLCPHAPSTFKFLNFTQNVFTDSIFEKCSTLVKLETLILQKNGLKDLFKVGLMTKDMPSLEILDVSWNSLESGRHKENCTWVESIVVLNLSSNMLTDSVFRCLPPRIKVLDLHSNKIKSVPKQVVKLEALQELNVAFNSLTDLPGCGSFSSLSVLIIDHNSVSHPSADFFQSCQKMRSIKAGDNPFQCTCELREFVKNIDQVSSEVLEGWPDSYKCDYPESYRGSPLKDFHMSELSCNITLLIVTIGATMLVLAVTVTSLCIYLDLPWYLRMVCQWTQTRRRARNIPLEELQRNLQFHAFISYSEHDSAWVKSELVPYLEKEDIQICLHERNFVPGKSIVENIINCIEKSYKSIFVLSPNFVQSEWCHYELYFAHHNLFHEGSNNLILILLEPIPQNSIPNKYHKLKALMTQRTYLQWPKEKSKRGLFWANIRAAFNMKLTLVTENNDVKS
Method: Competition binding assays were performed to test the TLR2 binding specificity of the test ligands using 2 cell lines: HEK-293/hTLR2 and SU.86.86. Cells were grown in 96-well plates for 2 days reaching approximately 80% confluency. On the day of the experiment, the cell culture media was aspirated and 50 μL of non-labeled test ligand was added in a series of decreasing concentrations (1 μM to 0.01 nM) followed by 50 μL of the competing Eu-labeled ligand 10 at a fixed concentration of 90 nM. Cells were incubated with labeled and unlabeled ligands for 1 h at 37° C. […] Cells were incubated for 30 min at 37° C. prior to reading. The plates were read on PerkinElmer VICTOR X4 Multilabel reader using the standard europium TRF protocol. […]

[3] = system: TLR2 expressing tumor xenografts (SU.86.86 cells); assay: In vivo TLR2 selectivity / tumor retention fluorescence imaging; set-up: species or system nude mice
[4] = system: TLR2 expressing tumor xenografts (SU.86.86 cells); assay: as above; set-up: species or system nude mice; conditions: for retention of fluorescence signal in tumor: 24 h post injection
Method: Female athymic nude mice 6-8 weeks old (Harlan) bearing human pancreatic tumor xenografts consisting of SU.86.86 cells on the right flank were used for this study. Mouse weights and tumor volumes were determined using caliper measurements and the formula: volume (mm3)=(length×width^2)/2. Images were acquired when the tumors reached an average size of 500 mm^3. For the blocked group, a co-injection of 100 nmol/kg of the fluorescently labeled compound 13 plus 2 μmol/kg Pam2CSK4 (a 20-fold excess) was administered via tail vein injection; for the unblocked group, 100 nmol/kg 13 was administered. Fluorescence images were acquired at time 0 and 24 h using the Caliper Xenogen IVIS200 system (PerkinElmer) with the 710-760 nm excitation and 810-875 nm emission filter set. The fluorescence was quantified using Living Image software, in which the quantified signals were corrected for both instrument and mouse background subtractions. The quantified fluorescence was then plotted using GraphPad Prism software and underwent statistical analysis using Student's t-test.
For further confirmation of ligand 13 specificity for TLR2, ex vivo fluorescence imaging and histological analyses were performed on the tumors. For histological analyses the samples were fixed in 10% formalin solution, processed, embedded, sectioned and either H&E stained for the presence of tumor or underwent IHC staining using TLR2 antibody (Abcam #ab24192).

TLR2 [5] = biological target: T1, TLR2; assay: In vitro TLR2 functional bioassay (NF-κB luciferase, HEK293/hTLR2 cells); type: cell-based; set-up: host or cells: HEK293 stably transfected with pUNO-hTLR2, transiently transfected with the pNifty-Luc reporter
Excerpt: In Vitro TLR2 Functional Bioassay The in vitro TLR2 functional bioassay was developed and optimized for use in screening soluble compound libraries to identify both TLR2 agonists and antagonists. In this study, the TLR2 functional bioassay was used as a fast high throughput screening to identify TLR2 agonist ligands by measuring the inducing activity of NF-κB. HEK293/hTLR2 cells, highly overexpressing human TLR2, were used along with the parental HEK293, cells as a negative control. Cells were seeded at a density of 40,000 per well using a WellMate® Microplate dispenser (Thermo Fischer Scientific/Matrix) in black 96-well plates with opaque white wells (Perkin Elmer Wallac, Waltham, Mass.) and then incubated at 37° C. On day 2, the cells were transiently transfected with pNifty-Luc (InvivoGen), an NF-κB inducible reporter plasmid expressing the luciferase reporter gene (Zuany-Amorim, C., J., et al. Nat Rev Drug Discov, 2002. 1(10):797-807), using an optimized 4:1 ratio by volume of Fugene® HD Transfection Reagent (Roche Applied Science, Indianapolis, Ind.) to pNifty-Luc plasmid DNA (1 μg/mL). […] On day 4 after 24 hrs of peptide stimulation, luciferase induced activity by the induction of NF-κB was measured. Media was aspirated from the wells using an ELx405 Select plate washer (BioTek, Winooski, Vt.), 150 μg/mL D-luciferin (Gold Biotechnology, St. Louis, Mo.) was dispensed using the microplate dispensor; the plates were incubated at 37° C. for 5 min. The luminescence intensity was measured using the standard luminescence protocol on a Victor™ X4 plate-reader equipped with a plate stacker for readout of multiple plates at a time (PerkinElmer, Waltham, Mass.). For each in vitro TLR2 bioassay, at least three different experiments were performed in triplicate (n=3+). Data were analyzed with GraphPad Prism software and curves were generated with the appropriate nonlinear fit regression analysis.
The in vitro TLR2 functional bioassay was developed and optimized for use in high-throughput screening of soluble compound libraries to identify both TLR2 agonists and antagonists. The bioassay measures the induction of NF-κB signaling via TLR2 in HEK-293/hTLR2 cells and parental HEK-293 cells as a negative control. Cells were seeded at a density of 40,000 per well using a WellMate Microplate dispenser (Thermo Fisher Scientific/Matrix) in black 96-well plates with opaque white wells (PerkinElmer, Waltham, Mass.) and then incubated at 37° C. On day 2, the cells were transiently transfected with pNifty-Luc (InvivoGen, San Diego, Calif.), an NF-κB inducible reporter plasmid expressing the luciferase reporter gene[28] using an optimized 4:1 ratio by volume of FugeneHD Transfection Reagent (Promega, Madison, Wis.) to pNifty-Luc plasmid DNA (1 μg/mL). […] […] On day 4 after 24 h of peptide stimulation, luciferase induced activity by the induction of NF-κB was measured. Media was aspirated from the wells using an ELx405 Select CW plate washer (BioTek, Winooski, Vt.), 150 μg/mL D-luciferin (Gold Biotechnology, St. Louis, Mo.) was dispensed using the microplate dispensor; the plates were incubated at 37° C. for 5 min. The luminescence intensity was measured using the standard luminescence protocol on a Victor X4 Multilabel plate reader equipped with a plate stacker for readout of multiple plates at a time (PerkinElmer, Waltham, Mass.). […] Data were analyzed with GraphPad Prism software and curves were generated with the appropriate nonlinear fit regression analysis.
Target sequence in this assay (O60603 21-784): as the sequence (O60603 21-784) above
Target sequence in this assay (Q9Y2C9 32-796 partner): as the sequence (Q9Y2C9 32-796 partner) above

TLR2 [6] = biological target: T1, TLR2; assay: In cyto europium TRF saturation binding assay; set-up: ATCC (SU.86.86 CRL-1837, Capan-I HTB-79); SU.86.86 and Capan-I express TLR2 endogenously
Method: TRF binding assays were performed as previously described (see Xu, L., et al. Mol Cancer Ther. 2009 8(8):2356-65).
Europium TRF binding assays were performed as previously described with slight modifications using 3 cell lines that express TLR2: HEK-293/hTLR2, SU.86.86, and Capan-I.[23a, 23d, 29] The Capan-I and SU.86.86 cells were plated in 96-well black plates with white opaque wells (PerkinElmer); while the HEK-293/hTLR2 cells were plated on 96-well poly-D-lysine coated plates (Sigma-Aldrich) to aid in the attachment of these cells to the plate. Cells were grown in the 96-well plates for 2 days reaching approximately 80% confluency. Both types of plates were evaluated for nonspecific binding and background signal.
For saturation binding, increased concentrations of the labeled ligand, compound 11 (Table 8), were used to determine total binding to TLR2. Non-specific binding was determined in the presence of 1 μM Pam2CSK4. On the day of the experiment the medium was aspirated. 50 μL of binding buffer was added to the total binding wells and 50 μL of Pam2CSK4 was added to the non-specific wells and then allowed to incubate for 30 m at 37° C. Next, 50 μL of the serial dilutions of […] were added and then allowed to incubate for 1 h at 37° C. Cells were washed three times to remove unbound ligand. Next, 100 μL of DELFIA Enhancement Solution (PerkinElmer) was added to each well. Cells were incubated for 30 min at 37° C. prior to reading. The plates were read on the VICTOR X4 Multilabel plate reader using the standard europium TRF protocol (340 nm excitation, […] and […] collection at 615 nm). To determine the mean Kd, statistical analysis was performed using GraphPad Prism software.
Target sequence in this assay (O60603 21-784): as the sequence (O60603 21-784) above
Target sequence in this assay (Q9Y2C9 32-796 partner): as the sequence (Q9Y2C9 32-796 partner) above

TLR2 [7] = biological target: T1, TLR2; conditions: 95° C. for 30 min; cited from earlier work
Target sequence in this assay (O60603 21-784, species assumed): as the sequence (O60603 21-784) above

- Ki (TLR2 [2]; SU.86.86 cells, 90 nM compound 11): 67 nM
- Ki (TLR2 [2]; competitive binding assay, cell line not stated): 11 nM
- EC50 (TLR2 [5]; dose-response 0.001 ng/mL to 10 μg/mL, read-out: TLR2 Agonist Activity EC50): 34 nM
Molecule: CCCCCCCCCCCCCCCC(=O)OC[C@H](CSC[C@H](NC(=O)COCC(=O)NCCCOCCOCCOCCCNC(=O)CCSC1CC(=O)N(CCNC(=O)CCCCC[N+]2=C(/C=C/C3=C(Oc4ccc(S(=O)(=O)[O-])cc4)C(=C/C=C4/N(CCCCS(=O)(=O)O)c5ccc(S(=O)(=O)O)cc5C4(C)C)/CCC3)C(C)(C)c3cc(S(=O)(=O)O)ccc32)C1=O)C(=O)NCC(=O)N[C@H](CO)C(=O)NCCCOCCOCCOCCCNC(=O)COCC(N)=O)OC(=O)CCCCCCCCCCCCCCC (stereo partly drawn) [Compound 13, IRDye800CW-Mpr-PEGO-Cys(S-[2,3-bis(palmitoyl)oxy-(R)-propyl])-Gly-DSer-PEGO-NH2]
- intraoperative fluorescence detection of tumor [1]: intraoperative detection of pancreatic cancer were demonstrated
- duration of retention in the SU.86.86 tumor ([3]; 10 nmol/Kg dosage): over 96 h
- clearance from the kidney ([3]; mouse, in vivo): cleared from the kidney within days of the injection but was retained longer in the tumor
- uptake in orthotopic pancreatic tumor xenografts ([3]; orthotopic): taken into and retained in orthotopic pancreatic tumor xenografts
- duration of FL signal retention in TLR2 expressing tumor xenografts ([3]; post-injection, dose not stated): up to 96 h
- mean tumor fluorescence unblocked / blocked ([4]; 24 h, 100 nmol/kg 13 ± 2 μmol/kg Pam2CSK4 (20-fold excess), n=8): 1.94 fold
- effect of blocking with excess unlabeled ligand on tumor signal ([4]; 24 h, p<0.001): significantly decreased FL signal in the tumor; also recorded: significant reduction in the tumor fluorescence
- retention of fluorescence signal in tumor [4]: Fluorescence signal was present in TLR2 expressing pancreatic tumor xenografts; also recorded: retention of fluorescence signal in the tumor
- retention of fluorescence signal in tumor ([4]; listed as LiCor IRDye800CW/T-02 conjugate): retained in the tumor at 24 h post injection while the agent had cleared from the animal except for the kidneys

- Bmax (TLR2 [6]; Capan-I cells): 951,170 AFU
- Bmax (TLR2 [6]; HEK-293/hTLR2 cells): 114,271 AFU
- Bmax (TLR2 [6]; SU.86.86 cells): 269,878 AFU
- Kd (TLR2 [6]; cell line not stated): 30 nM
- decrease in potency compared to 10 (TLR2 [5]): 10 fold
Molecule: CCCCCCCCCCCCCCCC(=O)OC[C@H](CSC[C@H](NC(=O)COCC(=O)NCCCOCCOCCOCCCNC(=O)CN(CCN(CCN(CC(=O)O)CC(=O)O)CC(=O)O)CC(=O)O)C(=O)NCC(=O)N[C@H](CO)C(=O)NCCCOCCOCCOCCCNC(=O)COCC(N)=O)OC(=O)CCCCCCCCCCCCCCC [Compound 11]

- NF-κB induced luciferase activity (luminescence) in screening (TLR2 [5]; 1 μg/mL, SAA at 1 and 10 μg/mL): low potency
B1: SAA: recombinant human Apo-SAA1 (Peprotech) derived from E. coli; serum amyloid A, acute-phase protein, TLR2 agonist (protein)
chain: MRSFFSFLGEAFDGARDMWRAYSDMREANYIGSDKYFHARGNYDAAKRGPGGVWAAEAISDRENIQRFFGHGAEDSLADQAANEWGRSGKDPNHFRPAGLPEKY
- loss of activity of heat-treated SAA (TLR2 [7]): 95%
